Several values for one entry are separate records, joined by “and”; a condition that tells them apart may be missing. Equal values may be shown once.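 1) Cells in 96-well plates. 2) Compound, 48 h, 5 concentrations. 3) Linear interpolation between surrounding doses. 4) Unreached endpoint = highest concentration. At the GI50, growth is halved. TGI: total growth inhibition.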
Legend:
Assay in all cases: NCI-60 cell line screen, 48 h
[1] = test system: NCI-H226 lung
[2] = test system: MDA-MB-435
[3] = test system: OVCAR-5 ovarian
[4] = test system: SW-620 colon
[5] = test system: M14 melanoma
[6] = test system: SK-MEL-5 melanoma
[7] = test system: HCT-15 colon
[8] = test system: HS 578T breast
[9] = test system: OVCAR-4 ovarian
[10] = test system: RPMI-8226 leukemia

Compound | GI50 [1] | TGI [1] | GI50 [2] | TGI [2] | GI50 [3] | TGI [3] [µM] | GI50 [4] | TGI [4] [µM] | GI50 [5] | TGI [5] | GI50 [6] | TGI [6] [µM] | GI50 [7] | TGI [7] [µM] | GI50 [8] | TGI [8] | GI50 [9] | TGI [9] [µM] | GI50 [10] | TGI [10] [µM]
Cc1ccc(NC(=O)c2ccnc(N3CCCC3)c2)cc1-c1ccc(C(=O)NCC2CC2)cc1 | > 25 µM | > 25 µM | > 25 µM | > 25 µM | > 25 µM | > 25 | > 25 µM | > 25 | > 25 µM | > 25 µM | > 25 µM | > 25 | > 25 µM | > 25 | > 25 µM | > 25 µM | > 25 µM | > 25 | > 25 µM | > 25
O=C1/C(=C/C(Cl)=C/c2ccccc2)SC(=S)N1CCc1ccc(O)cc1 | 2.17 µM | 7.16 µM | 1.61 µM | 4.27 µM | 2.02 µM | 3.91 | 1.43 µM | 3.9 | 2.42 µM | 9.7 µM | 1.77 µM | 3.31 | 2.05 µM | 11.2 | 3.24 µM | > 100 µM | 3.19 µM | 35.8 | 0.674 µM | 12.7
CC(C)(O)[C@H]1[C@@H]2OC(=O)[C@H]1[C@]1(O)C[C@H]3OC34C(=O)O[C@H]2[C@@]41C (stereo partly drawn) (tested in a mixture with another compound) | – | > 100 µM | – | > 100 µM | – | > 100 | – | > 100 | – | > 100 µM | – | > 100 | – | > 100 | – | > 100 µM | – | > 100 | – | > 100
CNC1C(O)CC(OC2C/C=C(\C)C/C(C)=C/C=C/CCC(C)CNC(=O)/C=C/C=C/C2C)OC1C (stereo not drawn) | – | 43.8 µM | – | 0.82 µM | – | 2.53 | – | 0.261 | – | 0.773 µM | – | 1.22 | – | 0.531 | – | 1.85 µM | – | 0.668 | – | 0.548
ON(CCc1ccccn1)Cc1ccccc1 | – | > 100 µM | – | > 100 µM | – | > 100 | – | > 100 | – | > 100 µM | – | > 100 | – | > 100 | – | > 100 µM | – | > 100 | – | > 100
Cn1cc(C2=C(c3c4n(c5ccccc35)CCC(CN)CC4)C(=O)NC2=O)c2ccccc21 (stereo not drawn) | 5.01 µM | 16.2 µM | 3.35 µM | 6.76 µM | 3.51 µM | 9.14 | 3.87 µM | 7.9 | 4.29 µM | 8.26 µM | 3.99 µM | 7.59 | 4.82 µM | 9.93 | 2.56 µM | 8.5 µM | 1.96 µM | 7.51 | 4.41 µM | 10.8
COc1cccc2c1c1nc3cc(C)c(C)cc3nc1n2CCN(C)C | 1.63 µM | 6.45 µM | 1.83 µM | 4.14 µM | 2.4 µM | 9.48 | 0.805 µM | 11.3 | 1.24 µM | 3.07 µM | 1.64 µM | 3.01 | 1.64 µM | 11.2 | 1.8 µM | 6.99 µM | 2.06 µM | 8.6 | 1.16 µM | 4.29
Cc1cccc(N=C2c3cc([N+](=O)[O-])ccc3-c3c2cc([N+](=O)[O-])cc3[N+](=O)[O-])c1 | 5.08 µM | 22.2 µM | 3.49 µM | 10.8 µM | 18.3 µM | 40.2 | 2.01 µM | 3.76 | 2.2 µM | 4.57 µM | 5.44 µM | 17.9 | 2.8 µM | 10.7 | 11.3 µM | 53.9 µM | 6.98 µM | > 100 | 2.73 µM | 10.7
O=C(O)c1cccc(CC(Br)C(=O)O)c1 (stereo not drawn) | – | > 100 µM | – | > 100 µM | – | > 100 | – | > 100 | – | > 100 µM | – | > 100 | – | > 100 | – | > 100 µM | – | > 100 | – | > 100
Clc1ccc(CO/N=C(\Cn2ccnc2)c2ccc(Cl)cc2Cl)c(Cl)c1 | 1.42 µM | 3.01 µM | 1.66 µM | 3.19 µM | 1.67 µM | 3.26 | 1.55 µM | 3.2 | 1.85 µM | 3.71 µM | 1.63 µM | 3.03 | 1.57 µM | 3.21 | 2.73 µM | > 100 µM | 1.36 µM | 2.67 | 1.45 µM | 4.52
COc1ccc(-c2nc(-c3nc4cc(C)c(C)cc4[nH]3)cc3c2[nH]c2ccccc23)cc1 | 3.32 µM | 54.8 µM | 3.97 µM | > 100 µM | 4.01 µM | > 100 | 7.54 µM | > 100 | 4.16 µM | 24.8 µM | 2.9 µM | 12.6 | 2.68 µM | 72.5 | 4.6 µM | > 100 µM | 6.98 µM | > 100 | 1.77 µM | 5.16
O=C(O)CCC1CCC(c2cc(F)ccc2F)(S(=O)(=O)c2ccc(Cl)cc2)CC1 (stereo not drawn) | 41.2 µM and > 100 µM | > 100 µM | 14.5 µM and 26.5 µM | 31.2 µM and > 92.7 µM | 92.2 µM and > 100 µM | > 100 | 32.2 µM and > 100 µM | > 100 | 15.9 µM and > 100 µM | 52.5 µM and > 100 µM | 27.6 µM and > 100 µM | > 100 | 33.7 µM and 47.8 µM | > 100 | 17.8 µM and 49.3 µM | 55.4 µM and > 100 µM | 30.5 µM and > 65.6 µM | > 100 | 71.4 µM and > 100 µM | > 100
[N-]=[N+]=CC(=O)OCC(N)C(=O)O (stereo not drawn) | 3.53 µM | > 100 µM | 0.457 µM | > 100 µM | 0.971 µM | > 100 | 0.649 µM | > 100 | 0.809 µM | > 100 µM | 0.563 µM | 14.5 | 0.631 µM | > 100 | > 100 µM | > 100 µM | 4.29 µM | > 100 | 1.8 µM | > 100
CO[C@H]1CC[C@@]2(C)C(=CC[C@H]3[C@@H]4C[C@H](O)C[C@@]4(C)CC[C@@H]32)C1 | 13.8 µM | 27.8 µM | 1.26 µM | 6.89 µM | 20.2 µM | 44.1 | 3.38 µM | 15 | 3.61 µM | 16.2 µM | 3.23 µM | 13.1 | 5.04 µM | 23.2 | 2.16 µM | 9.41 µM | 8.82 µM | 54.2 | 3.68 µM | 54.2
COC(=O)Nc1nc2ccc(Oc3ccc(NC(=O)Nc4cccc(Cl)c4)cc3)cc2[nH]1 | 2.46 µM | 24.3 µM | 0.0755 µM | 0.315 µM | 4.04 µM | > 25 | 0.975 µM | 9.85 | 1.25 µM | > 11.8 µM | 0.492 µM | 3.66 | 0.815 µM | > 25 | 0.553 µM | 9.67 µM | 3.05 µM | 8.19 | 1.64 µM | > 25
COC(=O)C#Cc1ccc([N+](=O)[O-])cc1 | – | 5.72 µM | – | 5.57 µM | – | 4.34 | – | 3.78 | – | 4.96 µM | – | 6.18 | – | 1.6 | – | 47.5 µM | – | 3.5 | – | 1.48
CN(C)CC1CCn2c(c(C3=C(c4cn(C)c5ccccc45)C(=O)NC3=O)c3ccccc32)C1 (stereo not drawn) | 4.01 µM | 9.38 µM | 3.7 µM | 7.49 µM | 4.61 µM | 12.8 | 4.16 µM | 8.32 | 4.11 µM | 8.04 µM | 3.9 µM | 7.49 | 4.1 µM | 10.1 | 2.31 µM | 7.36 µM | 4.32 µM | 9.3 | 4.89 µM | 11
CC(=O)OCC1OC(S[As](C)C)C(OC(C)=O)C1OC(C)=O (stereo not drawn) | 1.63 µM | 6.27 µM | 0.0672 µM | 0.301 µM | 0.481 µM | 2.17 | 0.302 µM | 1.47 | 0.193 µM | 0.726 µM | 0.162 µM | 0.385 | 0.256 µM | 1.08 | 0.319 µM | 0.841 µM | 1.15 µM | 8.09 | – | 0.126
CO[C@H](C(=O)N[C@@H](CCCCNC(=O)OCc1ccccc1)C(=O)OC(C)(C)C)[C@@H]1Cc2cc3cc(OC4CC(OC5CC(O)C(O)C(C)O5)C(O)C(C)O4)c(C)c(O)c3c(O)c2C(=O)[C@H]1OC1CC(OC2CC(OC3CC(C)(O)C(O)C(C)O3)C(O)C(C)O2)C(O)C(C)O1 (stereo partly drawn) | 0.673 µM | 2.14 µM | 0.805 µM | 2.28 µM | 0.976 µM | 2.82 | 0.441 µM | 3.34 | 0.879 µM | 2.48 µM | 0.432 µM | 1.59 | 2.55 µM | > 10 | 1.05 µM | 5 µM | 3 µM | > 10 | 0.487 µM | 3.65
COC(=O)c1c2c(c(C)[n+]([O-])c1C)C(=O)C(NCc1ccc(F)c(F)c1)=CC2=O | 2.69 µM | 8.14 µM | 1.7 µM | 3.15 µM | 2.5 µM | 6.59 | 2.17 µM | 6.89 | 1.64 µM | 3.6 µM | 1.14 µM | 2.38 | 1.6 µM | 4.02 | 2.76 µM | 11.9 µM | 1.03 µM | 2.22 | 2.05 µM | 5.6
NC(=O)Oc1cc(OC(N)=O)cc(N(CCCl)CCCl)c1 | 14.9 µM | 77.7 µM | 11.4 µM | 28.9 µM | 4.35 µM | 30 | 7.59 µM | > 100 | 5.74 µM | 30.9 µM | 6.93 µM | 52.5 | 6.31 µM | > 100 | 23.2 µM | 76.3 µM | 14.8 µM | 79.3 | 3.67 µM | 53.2
Cc1ccc(C(=O)NC2CCCCC2)cc1-c1ccc(C(=O)NCC2CC2)cc1 | > 25 µM | > 25 µM | > 25 µM | > 25 µM | > 25 µM | > 25 | > 25 µM | > 25 | > 25 µM | > 25 µM | 19.9 µM | > 25 | > 25 µM | > 25 | > 20.2 µM | > 25 µM | > 25 µM | > 25 | > 25 µM | > 25
Cn1cnc2c(NCc3ccccc3)nc(NCCO)nc21 | 17.5 µM | > 93.2 µM and 183 µM | 114 µM | 313 µM | – | > 217 | 158 µM | > 426 | 51 µM | 120 µM | 96.4 µM | 220 | 129 µM | > 500 | 162 µM | 465 µM | 110 µM | 339 | 81.2 µM | > 339
CN(CCC(=O)O)S(=O)(=O)c1ccccc1 | – | > 100 µM | – | > 100 µM | – | > 100 | – | > 100 | – | > 100 µM | – | > 100 | – | > 100 | – | > 100 µM | – | > 100 | – | > 100
COc1cnc2c(c1)C(=O)c1c-2n(CCCN2CCN(C)CC2)c(=O)c2cc(Cl)ccc12 | 12.3 µM | 36.2 µM | 1.53 µM | 3.14 µM | 3.56 µM | 13.3 | 0.299 µM | 12.8 | 1.71 µM | 3.61 µM | 11 µM | 25.2 | 4.08 µM | 27.9 | 12.9 µM | 36.2 µM | 2.19 µM | 18.1 | 13.9 µM | 45.1
O=C(Cn1ccnc1[N+](=O)[O-])NCC(F)(F)C(F)(F)F | > 100 µM | > 100 µM | > 100 µM | > 100 µM | > 100 µM | > 100 | > 100 µM | > 100 | > 100 µM | > 100 µM | > 100 µM | > 100 | > 100 µM | > 100 | > 100 µM | > 100 µM | > 100 µM | > 100 | > 100 µM | > 100
